Like-named read-outs stand apart in the source and are kept apart here.
How the values were obtained:
CYP2J2 [1] = target: T1, CYP2J2 (Homo sapiens, UniProt P51589); assay: biochemical; details: for y0 (residual rate of AA epoxidation at maximum inhibition): fit to eq S1
T1 sequence (P51589 1-502): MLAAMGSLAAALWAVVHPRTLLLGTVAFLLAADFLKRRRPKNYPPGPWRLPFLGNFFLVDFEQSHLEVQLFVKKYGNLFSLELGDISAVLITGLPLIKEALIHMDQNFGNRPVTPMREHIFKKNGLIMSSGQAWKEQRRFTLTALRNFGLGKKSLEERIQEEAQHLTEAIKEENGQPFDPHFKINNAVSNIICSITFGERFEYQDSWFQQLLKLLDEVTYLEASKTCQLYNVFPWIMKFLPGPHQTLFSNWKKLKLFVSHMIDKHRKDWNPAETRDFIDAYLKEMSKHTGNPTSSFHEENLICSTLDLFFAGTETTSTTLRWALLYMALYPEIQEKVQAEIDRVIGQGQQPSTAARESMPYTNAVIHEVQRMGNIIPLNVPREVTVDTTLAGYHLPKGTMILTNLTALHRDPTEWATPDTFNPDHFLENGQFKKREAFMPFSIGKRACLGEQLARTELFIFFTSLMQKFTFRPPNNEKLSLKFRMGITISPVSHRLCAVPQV

CYP2J2 [2] = target: T1, CYP2J2; format: binding
CYP2J2 [3] = target: T1, CYP2J2; assay: DOX metabolism kinetics by CPR and CYP2J2; details: none detected by LC-MS/MS analysis
CYP2J2 [4] = target: T1, CYP2J2; assay: CYP2J2-mediated ebastine; format: biochemical
[5] = cited from earlier work
CYP2J2 [6] = target: T1, CYP2J2
CYP2J2 [7] = target: T1, CYP2J2; remark: listed apart in the source
[8] = substrate: COc1cccc2c1C(=O)c1c(O)c3c(c(O)c1C2=O)C[C@@](O)(C(=O)CO)C[C@@H]3O[C@H]1C[C@H](N)[C@H](O)[C@H](C)O1; assay: purified protein, by the assay type; details: other: CPR with CYP2J2; hyperbolic curve

COc1cccc2c1C(=O)c1c(O)c3c(c(O)c1C2=O)C[C@@](O)(C(=O)CO)C[C@@H]3O[C@H]1C[C@H](N)[C@H](O)[C@H](C)O1 [DOX, doxorubicin]
IC50 (CYP2J2 [1]): 5.48 ± 0.04 µM | Ki (CYP2J2 [1]): 3.11 ± 0.02 µM | enzyme activity retained in the presence of saturating amounts (CYP2J2 [1]; 100 μM AA): 23% | y0 (residual rate of AA epoxidation at maximum inhibition) (CYP2J2 [1]; 100 μM AA): 19.8 ± 3.8 pmol (min)^−1 (nmolCYP2J2)^−1 | Kd (CYP2J2 [2]): 5.32 ± 0.89 µM | r0 (intrinsic polarization value) (CYP2J2 [2]; 1 μM DOX or 7-de-aDOX, 37°C, with 100 μM AA or 60 μM EBS where indicated): 0.083 ± 0.007 | r1 (maximum polarization value) (CYP2J2 [2]; 1 μM DOX or 7-de-aDOX, one-site fit): 0.219 ± 0.010 | metabolism by CYP2J2 to form new products (in words) (CYP2J2 [3]): does not metabolize | IC50 (CYP2J2 [4]): 17.9 µM | Ki (CYP2J2 [4]): 8.97 ± 0.01 µM | y0 (residual rate of EBS metabolism) (CYP2J2 [4]; 20 μM EBS, fit to eq S1): 5.87 ± 2.84 | plasma levels upon immediate exposure [5]: 1000 to 10000 nM | toxic cumulative dose [5]: ~ 50 μM

CCCCC/C=C\C/C=C\C/C=C\C/C=C\CCCC(=O)O [AA, arachidonic acid]
Ki (CYP2J2 [2]): > 200 µM | inhibition of DOX binding to CYP2J2 (in words) (CYP2J2 [2]; 100 μM AA, 1 μM DOX): weakly inhibits

COc1cccc2c1C(=O)c1c(O)c3c(c(O)c1C2=O)C[C@@](O)(/C(C)=N/NC(=O)c1ccccc1)C[C@@H]3O[C@H]1C[C@H](N)[C@H](O)[C@H](C)O1 [ZRN, zorubicin]
IC50 (CYP2J2 [1]): 6.46 ± 0.03 µM | Ki (CYP2J2 [1]): 3.67 ± 0.02 µM | change in the regioselectivity of AA epoxidation (in words) (CYP2J2 [1]; 100 μM AA, 0–50 μM anthracycline): not a significant change | y0 (residual rate of AA epoxidation at maximum inhibition) (CYP2J2 [1]; 100 μM AA): 18.7 ± 3.5 pmol (min)^−1 (nmolCYP2J2)^−1

COc1cccc2c1C(=O)c1c(O)c3c(c(O)c1C2=O)CC(O)(C(=O)CO)CC3 (stereo not drawn) [7-de-aDOX, 7-deoxydoxorubicin aglycone]
IC50 (CYP2J2 [1]): 10.2 ± 0.1 µM | Ki (CYP2J2 [1]): 5.78 ± 0.03 µM | NADPH oxidation on addition of CYP2J2 (in words) (CYP2J2 [6]): does not increase | Kd (CYP2J2 [2]): 13.1 ± 1.1 µM | metabolism by CYP2J2 to form new products (in words) (CYP2J2 [7]): does not metabolize

COc1cccc2c1C(=N)c1c(O)c3c(c(O)c1C2=O)C[C@@](O)(C(C)=O)C[C@@H]3O[C@H]1C[C@H](N)[C@H](O)[C@H](C)O1 [5-IDN, 5-iminodaunorubicin]
IC50 (CYP2J2 [1]): 27.4 ± 0.03 µM | Ki (CYP2J2 [1]): 15.6 ± 0.02 µM

B1: CYP2J2 (Homo sapiens) (protein)
chain: MLAAMGSLAAALWAVVHPRTLLLGTVAFLLAADFLKRRRPKNYPPGPWRLPFLGNFFLVDFEQSHLEVQLFVKKYGNLFSLELGDISAVLITGLPLIKEALIHMDQNFGNRPVTPMREHIFKKNGLIMSSGQAWKEQRRFTLTALRNFGLGKKSLEERIQEEAQHLTEAIKEENGQPFDPHFKINNAVSNIICSITFGERFEYQDSWFQQLLKLLDEVTYLEASKTCQLYNVFPWIMKFLPGPHQTLFSNWKKLKLFVSHMIDKHRKDWNPAETRDFIDAYLKEMSKHTGNPTSSFHEENLICSTLDLFFAGTETTSTTLRWALLYMALYPEIQEKVQAEIDRVIGQGQQPSTAARESMPYTNAVIHEVQRMGNIIPLNVPREVTVDTTLAGYHLPKGTMILTNLTALHRDPTEWATPDTFNPDHFLENGQFKKREAFMPFSIGKRACLGEQLARTELFIFFTSLMQKFTFRPPNNEKLSLKFRMGITISPVSHRLCAVPQV
Km [8]: 10.4 ± 1.6 µM
